# According to patent US11603359B2, “Benzothiadiazepine compounds and their use as bile acid modulators” (Albireo AB, priority 2019, dated 2023):
# Key:
# [1] = target: T1, human LBAT (Homo sapiens, UniProt Q14973); test: LBAT (h/m) assay, human LBAT-overexpressing cells, 3H-taurocholic acid uptake; assay type: cell-based; settings: 0.3 μM 3H-taurocholic acid + 7.5 μM cold taurocholic acid, 20 minutes, read-out: hLBAT IC50
# T1 construct: expressed in transfected cells; Geneticin-selected LBAT-overexpressing cells
# T1 sequence (Q14973 1-349): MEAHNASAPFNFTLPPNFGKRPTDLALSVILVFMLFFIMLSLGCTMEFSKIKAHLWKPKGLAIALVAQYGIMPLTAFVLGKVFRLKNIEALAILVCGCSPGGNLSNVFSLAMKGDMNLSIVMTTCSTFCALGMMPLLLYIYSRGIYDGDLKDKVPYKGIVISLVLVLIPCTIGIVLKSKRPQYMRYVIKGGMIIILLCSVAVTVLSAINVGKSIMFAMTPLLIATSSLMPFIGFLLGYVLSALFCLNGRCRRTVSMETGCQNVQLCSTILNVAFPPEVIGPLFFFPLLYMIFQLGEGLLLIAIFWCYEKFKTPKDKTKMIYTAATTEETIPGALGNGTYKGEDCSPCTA
# Experimental: 20,000 cells (Human or Mouse LBAT-overexpressing cells) were seeded in 96-wells plate (Corning CLS3809) in 100 μL MEM-alpha medium (Gibco 12571-063) supplemented with 10% FBS (Gibco 10438026) containing Geneticin (Gibco 10131-027) (1 mg/mL) and incubated at 37° C. in 5% CO2 for 24 hours. After incubation, media was decanted from the wells and cells were washed two times with 300 μL of basal MEM-alpha medium (FBS-free). After decanting basal MEM-alpha medium each time, plates were tapped against paper towel to ensure maximum removal of residual media.
# For human LBAT, incubation mix was prepared by adding test inhibitor dilutions (3-fold serial dilution in DMSO (Sigma D2650), 10 points) in MEM-alpha (without FBS) containing 0.3 μM 3H-taurocholic acid (ARC ART-1368) and 7.5 μM cold taurocholic acid (Sigma T4009) (maintaining 0.2% final DMSO concentration). For mouse LBAT, incubation mix was prepared by adding test inhibitor dilutions (3-fold serial dilution in DMSO, 10 points) in MEM-alpha (without FBS) containing 0.3 μM 3H-taurocholic acid and 25 μM cold taurocholic acid maintaining 0.2% final DMSO concentration).
# 50 μL of incubation mix containing test inhibitors was then added to the wells (in duplicate) and the plates were incubated for 20 minutes in a CO2 incubator at 37° C. After incubation, the reaction was stopped by keeping the plates on ice water mix for 2-3 minutes and then the incubation mix was aspirated completely from the wells. The wells were washed two times with 250 μL of chilled unlabelled 1 mM taurocholic acid dissolved in HEPES (Gibco 15630080)-buffered (10 mM) HBSS (Gibco 14175079) (pH 7.4). The plates were tapped against a paper towel after every wash to ensure maximum removal of blocking buffer.
# 100 μL of MicroScint-20 (PerkinElmer 6013621) was added to the wells and kept overnight at room temperature before reading the plates in TopCount NXT™ Microplate Scintillation and Luminescence Counter from PerkinElmer under 3H Test protocol (set at 120 seconds reading time per well, with normal plate orientation).
# All test compounds were provided in powder form at room temperature. 10 mM DMSO stocks of the test compounds were prepared, aliquoted and stored at −20° C. From the 10 mM DMSO stock of the compounds, a 3-fold serial dilution in DMSO was prepared to get a total of 10 dilutions of the test compounds. 0.5 μL of this dilution in DMSO was added to 250 μL of FBS-free basal media containing 3H-taurocholic acid and cold taurocholic acid to prepare the incubation mixture.
# [2] = Bioavailability studies in mice; assay type: in vivo, mice (C57BL/6 or CD1); settings: male, mouse, plasma, 1 mg/kg intravenous vs 10 mg/kg oral
# Experimental: (§1) Male mice (C57BL/6 or CD1) or Wistar rats of 8-9 weeks old were used. For each test compound, two groups of 3 animals each were used. One group was administered a single intravenous dose of 1 mg/kg (vehicle 100% DMSO) through the tail vein and the other group was administered a single oral dose of 10 mg/kg through gavage needle. The group that was administered an oral dose was fasted overnight. Blood samples were collected after 0.083, 0.25, 0.5, 1, 2, 4, 6, 8 and 24 hours following intravenous administration, and after 0.25, 0.5, 1, 2, 4, 6, 8 and 24 hours following oral administration. Blood samples were taken from saphenous vein. 0.2% EDTA was used as the anticoagulant. The samples were analyzed by a discovery grade bioanalytical method developed for the estimation of test compound in plasma, using an LC-MS/MS system.
# [3] = Bioavailability studies in rats; assay type: in vivo; settings: male, Wistar, plasma, rat, 1 mg/kg intravenous vs 10 mg/kg oral
# Experimental: as §1
Structure (SMILES),IC50 [1] [nM],other results
"CCCCC1(CCCC)CN(c2ccccc2)c2cc(SC)c(OCC(O)C(=O)O)cc2S(=O)(=O)N1 (racemic) [Example 5, 3-((3,3-dibutyl-7-(methylthio)-1,1-dioxido-5-phenyl-2,3,4,5-tetrahydro-1,2,5-benzothiadiazepin-8-yl)oxy)-2-hydroxypropanoic acid]",1880,–
"CCCCC1(CC)CN(c2ccccc2)c2cc(N(C)C)c(OCCC(=O)O)cc2S(=O)(=O)N1 (racemic) [Example 11, 3-((3-Butyl-7-(dimethylamino)-3-ethyl-1,1-dioxido-5-phenyl-2,3,4,5-tetrahydro-1,2,5-benzothiadiazepin-8-yl)oxy)propanoic acid]",1170,–
"CCCCC1(CC)CN(c2ccccc2)c2cc(SC)c(OCCC(=O)O)cc2S(=O)(=O)N1 (single isomer, unassigned) [Example 4, 3-((3-butyl-3-ethyl-7-(methylthio)-1,1-dioxido-5-phenyl-2,3,4,5-tetrahydro-1,2,5-benzothiadiazepin-8-yl)oxy)propanoic acid]",3650,bioavailability ([2]; CD1 mice): 45%; bioavailability [3]: 90%
"CCCCC1(CCCC)CN(c2ccccc2)c2cc(SC)c(OCC(O)C(=O)O)cc2S(=O)(=O)N1 (single isomer, unassigned) [Example 7, 3-((3,3-dibutyl-7-(methylthio)-1,1-dioxido-5-phenyl-2,3,4,5-tetrahydro-1,2,5-benzothiadiazepin-8-yl)oxy)-2-hydroxypropanoic acid]",2220,–
"CCCCC1(CC)CN(c2ccccc2)c2cc(N(C)C)c(OCCC(=O)O)cc2S(=O)(=O)N1 (single isomer, unassigned) [Example 12, 3-((3-butyl-7-(dimethylamino)-3-ethyl-1,1-dioxido-5-phenyl-2,3,4,5-tetrahydro-1,2,5-benzothiadiazepin-8-yl)oxy)propanoic acid]",2220,–
"CCCCC1(CCCC)CN(c2ccccc2)c2cc(SC)c(OCCC(=O)O)cc2S(=O)(=O)N1 [Example 1, 3-((3,3-Dibutyl-7-(methylthio)-1,1-dioxido-5-phenyl-2,3,4,5-tetrahydro-1,2,5-benzothiadiazepin-8-yl)oxy)propanoic acid]",2910,bioavailability ([2]; C57BL/6 mice): 34%; bioavailability ([2]; CD1 mice): 59%; bioavailability ([3]; Na^+ salt): 98%
"CCCCC1(CCCC)CN(c2ccccc2)c2cc(SC)c(OC(C)CC(=O)O)cc2S(=O)(=O)N1 (centres unmarked) [Example 8, 3-((3,3-Dibutyl-7-(methylthio)-1,1-dioxido-5-phenyl-2,3,4,5-tetrahydro-1,2,5-benzothiadiazepin-8-yl)oxy)butanoic acid]",2630,–
"CCCCC1(CCCC)CN(c2ccccc2)c2cc(Cl)c(OCCC(=O)O)cc2S(=O)(=O)N1 [Example 9, 3-((3,3-dibutyl-7-chloro-1,1-dioxido-5-phenyl-2,3,4,5-tetrahydro-1,2,5-benzothiadiazepin-8-yl)oxy)propanoic acid]",1620,–
"CCCCC1(CCCC)CN(c2ccc(O)cc2)c2cc(SC)c(OCCC(=O)O)cc2S(=O)(=O)N1 [Example 10, 3-((3,3-dibutyl-5-(4-hydroxyphenyl)-7-(methylthio)-1,1-dioxido-2,3,4,5-tetrahydro-1,2,5-benzothiadiazepin-8-yl)oxy)propanoic acid]",7200,–
